Where two headings read alike, the source gives them in different places. Starred links: 1 amine or outer side, 2 acyl side, 3 side chain; linkers in the order of their positions; H or OH if unused. Non-standard residues stand in square brackets, D forms with d. Groups on a side chain read outwards from the residue. *: point of attachment. C18 diacid = O=C(O)CCCCCCCCCCCCCCCCC(=O)*; γGlu = O=C(O)[C@H](CCC(=O)[*:2])N[*:1]; Aib = CC(C)(N)C(=O)O

The target in one data set is T1, hGLP1R (Homo sapiens, UniProt P43220).
T1 construct: expressed in transfected cells; host or cells: HEK-293 cells carrying a CRE-luciferase reporter gene
As to the kind of experiment: hGLP1R CreLuc reporter gene assay in 0.5% and 100% plasma. The data set is classed as cell-based. Conditions: CreLuc reporter gene assay. The essentials: (§1)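 HEK cells (GLP-1R, NPY2R) or CHO cells (GIPR) carrying a CRE-luciferase reporter, incubated 4 h at 37 °C with peptides in HBSS/20 mM HEPES pH 7.4 plus 0.5% human plasma, or in 100% plasma. Luminescence read; EC50 from 8-point variable-slope sigmoid fits.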
(Reporter assays use an easily measured gene product as a stand-in for the process of interest.)

Another data set addresses T2, hGIPR (Homo sapiens, UniProt P48546).
T2 construct: expressed in transfected cells; host or cells: CHO cells carrying a CRE-luciferase reporter gene
T2 sequence (P48546 22-466): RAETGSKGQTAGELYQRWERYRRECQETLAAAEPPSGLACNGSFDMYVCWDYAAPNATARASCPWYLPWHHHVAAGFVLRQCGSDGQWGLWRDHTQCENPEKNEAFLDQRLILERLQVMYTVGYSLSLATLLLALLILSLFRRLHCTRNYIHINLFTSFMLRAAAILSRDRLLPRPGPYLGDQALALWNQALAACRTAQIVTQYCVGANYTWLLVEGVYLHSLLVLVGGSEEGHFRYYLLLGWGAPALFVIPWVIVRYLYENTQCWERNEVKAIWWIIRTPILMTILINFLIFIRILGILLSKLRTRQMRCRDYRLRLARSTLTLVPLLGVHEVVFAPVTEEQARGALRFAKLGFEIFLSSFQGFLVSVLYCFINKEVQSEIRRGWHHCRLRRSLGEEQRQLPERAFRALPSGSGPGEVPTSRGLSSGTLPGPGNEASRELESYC
As to the kind of experiment: hGIPR CreLuc reporter gene assay in 0.5% and 100% plasma. The data set is classed as cell-based. As to conditions: CreLuc reporter gene assay. In outline:
as §1

For a further data set, the target named is T3, hNPY2R (Homo sapiens, UniProt P49146).
T3 construct: expressed in transfected cells; host or cells: HEK-293 cells carrying a CRE-luciferase reporter gene
T3 sequence (P49146 1-381): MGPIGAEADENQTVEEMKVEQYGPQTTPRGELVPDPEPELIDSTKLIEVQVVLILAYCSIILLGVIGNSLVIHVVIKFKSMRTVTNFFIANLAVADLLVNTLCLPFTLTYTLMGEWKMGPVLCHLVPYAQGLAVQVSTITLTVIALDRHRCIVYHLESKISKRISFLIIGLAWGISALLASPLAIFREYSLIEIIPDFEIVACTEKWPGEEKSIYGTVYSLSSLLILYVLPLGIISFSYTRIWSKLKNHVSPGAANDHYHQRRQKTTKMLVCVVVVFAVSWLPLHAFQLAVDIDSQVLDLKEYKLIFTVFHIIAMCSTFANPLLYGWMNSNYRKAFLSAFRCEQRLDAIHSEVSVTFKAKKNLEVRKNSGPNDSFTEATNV
As to the kind of experiment: hNPY2R CreLuc reporter gene assay in 0.5% and 100% plasma. The data set is classed as cell-based. Conditions: CreLuc reporter gene assay. The essentials:
as §1

Data set [1] can be described thus: Mouse PK after intravenous application. The data set is classed as in vivo. As to conditions: mean residence time, intravenous 30-60 nmol/kg, male NMRI mice. In outline:
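Male NMRI mice (30–40 g) received 30-60 nmol/kg peptide by tail-vein injection, dissolved in 50 mM phosphate buffer (pH 7.4)/3.5% mannitol. Saphenous blood was sampled up to 56 hours post-dose and EDTA plasma analysed by LC-MS. PK parameters came from non-compartmental analysis.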

Data set [2] is described as follows: Effect on acute food intake in normal NMRI mice. The data set is classed as in vivo. Conditions: 30 nmol/kg subcutaneously once, normalized to vehicle group, male NMRI mice. The procedure: Example 4: Effect on Acute Food Intake in Normal NMRI Mice
Male NMRI mice were obtained from Janvier (Janvier Labs, France) or from Charles River (Charles River Research Models & Services Germany GmbH) at the age of 3 weeks. The animals get a microchip (Datamars, Slim Microchip T-SL) for individual identification after delivery. They were housed with 4 mice per cage under a 12/12 dark-light cycle, light off at 3 p.m. Room temperature was controlled to 21° C. +/−1° C. and humidity 60%+/−20%. Mice had ad libitum access to regular rodent chow (KLIBA Nafag 3040 or Altromin 1324, Brogaarden, Denmark) and tap water.
Latest transfer into the HM2-System of MBRose, Denmark (real-time monitoring system of food- and water intake) of the animals 5 days before study start, to allow acclimatization to experimental conditions. As the animals were uniquely identified with the microchips, each individual animal was identified by its own microchip upon entry and exit from the food channel via antennae. Randomization of the mice for each study group (n=8; age earliest 6 weeks old) was based on food intake (middle of last three days 24 h-Intervall) and bodyweight directly before start of the study. A vehicle treated (50 mM phosphate buffer pH7.4 with 3.5% Mannitol) group was included in each experiment. To have the same nutrition standard for each animal the food access was locked eight hours before dark phase. One hour before night, the animals were once treated subcutaneously with the test peptide. Food intake was reported hourly for a period of 24 h.

Setting [3] is: 0.5% human plasma, read-out: hGLP1R 0.5% hP.
The mark [4] stands for this setting: 0.5% human plasma, read-out: hGIPR 0.5% hP.
Setting [5] is: 100% human plasma, read-out: hGIPR 100% hP.
Where [6] appears, read: 0.5% human plasma, read-out: hNPY2R 0.5% hP.

T1 sequence (P43220 24-463): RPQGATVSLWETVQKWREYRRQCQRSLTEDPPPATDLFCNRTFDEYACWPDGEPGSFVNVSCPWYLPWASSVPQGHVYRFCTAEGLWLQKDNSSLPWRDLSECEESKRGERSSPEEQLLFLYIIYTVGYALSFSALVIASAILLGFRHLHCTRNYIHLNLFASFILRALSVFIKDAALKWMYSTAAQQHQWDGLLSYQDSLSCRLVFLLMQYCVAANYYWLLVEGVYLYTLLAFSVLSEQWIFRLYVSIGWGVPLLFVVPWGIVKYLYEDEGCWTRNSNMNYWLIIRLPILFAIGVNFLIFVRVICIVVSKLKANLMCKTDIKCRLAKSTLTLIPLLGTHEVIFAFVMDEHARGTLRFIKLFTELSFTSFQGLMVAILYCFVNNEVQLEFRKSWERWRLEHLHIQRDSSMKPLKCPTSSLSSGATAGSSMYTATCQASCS

Usually MRT stands for a mean duration of stay, worked out from the concentration-time curve. On to `CC[C@H](C)[C@H](NC(=O)[C@H](CC(C)C)NC(=O)[C@H](Cc1c[nH]c2ccccc12)NC(=O)[C@H](CCC(N)=O)NC(=O)[C@@H](NC(=O)[C@H](Cc1ccccc1)NC(=O)[C@H](C)NC(=O)C(C)(C)NC(=O)[C@H](CCC(N)=O)NC(=O)[C@H](C)NC(=O)[C@H](CCC(N)=O)NC(=O)[C@H](CCCCN)NC(=O)[C@H](CCC(=O)O)NC(=O)[C@H](CC(C)C)NC(=O)C(C)(C)NC(=O)[C@@H](NC(=O)[C@H](CO)NC(=O)[C@H](Cc1ccc(O)cc1)NC(=O)[C@H](CC(=O)O)NC(=O)[C@H](CO)NC(=O)[C@@H](NC(=O)[C@H](Cc1ccccc1)NC(=O)[C@@H](NC(=O)CNC(=O)[C@H](CCC(=O)O)NC(=O)C(C)(C)NC(=O)[C@@H](N)Cc1ccc(O)cc1)[C@@H](C)O)[C@@H](C)O)[C@@H](C)CC)C(C)C)C(=O)N[C@@H](CCCCNC(=O)[C@@H](N)CCCCNC(=O)CC[C@H](NC(=O)CC[C@H](NC(=O)CC[C@H](NC(=O)CC[C@H](NC(=O)CC[C@H](NC(=O)CC[C@H](NC(=O)CCCCCCCCCCCCCCCCCCC(=O)O)C(=O)O)C(=O)O)C(=O)O)C(=O)O)C(=O)O)C(=O)O)C(=O)NCC(=O)NCC(=O)N1CCC[C@H]1C(=O)N[C@@H](CO)C(=O)N[C@@H](CCC(=O)O)C(=O)NCC(=O)N[C@@H](C)C(=O)N[C@@H](CO)C(=O)N[C@@H](CC(C)C)C(=O)N[C@@H](CCCNC(=N)N)C(=O)N[C@@H](Cc1c[nH]cn1)C(=O)N[C@@H](Cc1ccc(O)cc1)C(=O)N[C@@H](Cc1ccc(O)cc1)C(=O)N[C@@H](CC(N)=O)C(=O)N[C@@H](Cc1c[nH]c2ccccc12)C(=O)N[C@@H](CC(C)C)C(=O)N[C@H](C(=O)N[C@@H](CCCNC(=N)N)C(=O)N[C@@H](CCC(N)=O)C(=O)N[C@@H](CCCNC(=N)N)C(=O)N[C@@H](Cc1ccc(O)cc1)C(N)=O)[C@@H](C)O` [Compound 220, Y-Aib-E-G-T-F-T-S-D-Y-S-I-Aib-L-E-K-Q-A-Q-Aib-A-F-V-Q-W-L-I-K(1,3)-GGPSEGASLRHYYNWLTRQRY-NH2.C20DA-gGlu-gGlu-gGlu-gGlu-gGlu-gGlu-eLys(1,2)], for which the EC50 at hGLP1R (setting [3]) came out at 0.17 nM; at hGIPR (setting [4]) it was 0.29 nM; on hGIPR (setting [5]), 1.83 nM; at hNPY2R (setting [6]), 10.2 nM; on hNPY2R (100% human plasma, read-out: hNPY2R 100% hP), 42.6 nM. The mean residence time MRT in data set [1] (plasma) was determined as 12.1 h. The “Acute Food Intake 24 h 30 nmol/kg [% CTL]” value in data set [2] is 45 % CTL.
For the compound `CC[C@H](C)[C@H](NC(=O)[C@H](CC(C)C)NC(=O)[C@H](Cc1c[nH]c2ccccc12)NC(=O)[C@H](CCC(=O)O)NC(=O)[C@@H](NC(=O)[C@H](Cc1ccccc1)NC(=O)[C@H](C)NC(=O)C(C)(C)NC(=O)[C@H](CCC(N)=O)NC(=O)[C@H](C)NC(=O)[C@H](CCC(N)=O)NC(=O)[C@H](CCCCN)NC(=O)[C@H](CCC(=O)O)NC(=O)[C@H](CC(C)C)NC(=O)C(C)(C)NC(=O)[C@@H](NC(=O)[C@H](CO)NC(=O)[C@H](Cc1ccc(O)cc1)NC(=O)[C@H](CC(=O)O)NC(=O)[C@H](CO)NC(=O)[C@@H](NC(=O)[C@H](Cc1ccccc1)NC(=O)[C@@H](NC(=O)CNC(=O)[C@H](CCC(=O)O)NC(=O)C(C)(C)NC(=O)[C@@H](N)Cc1ccc(O)cc1)[C@@H](C)O)[C@@H](C)O)[C@@H](C)CC)C(C)C)C(=O)N[C@@H](CCCCNC(=O)[C@@H](N)CCCCNC(=O)[C@H](CCC(=O)O)NC(=O)CC[C@H](NC(=O)CC[C@H](NC(=O)CC[C@H](NC(=O)CC[C@H](NC(=O)CC[C@H](NC(=O)CCCCCCCCCCCCCCCCCCC(=O)O)C(=O)O)C(=O)O)C(=O)O)C(=O)O)C(=O)O)C(=O)NCC(=O)NCC(=O)N1CCC[C@H]1C(=O)N[C@@H](CO)C(=O)N[C@@H](CCC(=O)O)C(=O)NCC(=O)N[C@@H](C)C(=O)N[C@@H](CO)C(=O)N[C@@H](CC(C)C)C(=O)N[C@@H](CCCNC(=N)N)C(=O)N[C@@H](Cc1c[nH]cn1)C(=O)N[C@@H](Cc1ccc(O)cc1)C(=O)N[C@@H](Cc1ccc(O)cc1)C(=O)N[C@@H](CC(N)=O)C(=O)N[C@@H](Cc1c[nH]c2ccccc12)C(=O)N[C@@H](CC(C)C)C(=O)N[C@H](C(=O)N[C@@H](CCCNC(=N)N)C(=O)N[C@@H](CCC(N)=O)C(=O)N[C@@H](CCCNC(=N)N)C(=O)N[C@@H](Cc1ccc(O)cc1)C(N)=O)[C@@H](C)O` [Compound 286, Y-Aib-E-G-T-F-T-S-D-Y-S-I-Aib-L-E-K-Q-A-Q-Aib-A-F-V-E-W-L-I-K(1,3)-GGPSEGASLRHYYNWLTRQRY-NH2.C20DA-gGlu-gGlu-gGlu-gGlu-gGlu-Glu-eLys(1,2)], the MRT in data set [1] (in vivo) worked out at 11 h. Further, in data set [2], the “Acute Food Intake 24 h 30 nmol/kg [% CTL]” value is 58 % CTL.
On to “H-Y[Aib]EGTFTSDYSI[Aib]LEKQAQ[Aib]EFVEWLIK([γGlu-γGlu-γGlu-γGlu-C18 diacid])GGPSEGASLRHYYNWLTRQRY-NH2 [Compound 276, Y-Aib-E-G-T-F-T-S-D-Y-S-I-Aib-L-E-K-Q-A-Q-Aib-E-F-V-E-W-L-I-K(1,3)-GGPSEGASLRHYYNWLTRQRY-NH2.C18DA-gGlu-gGlu-gGlu-gGlu(1,2)]”, for which the EC50 at hGLP1R (setting [3]) came to 0.35 nM; at hGLP1R (100% human plasma, read-out: hGLP1R 100% hP), 16.7 nM; on hGIPR (setting [4]), 0.37 nM; on hGIPR (setting [5]), 1.82 nM; at hNPY2R (setting [6]), 20.7 nM. In data set [2], the “Acute Food Intake 24 h 30 nmol/kg [% CTL]” value turned out to be 60 % CTL.

Source of the values: US20240247080A1, “GLP1/GIP/NPY2 RECEPTOR TRIPLE AGONISTS” (Boehringer Ingelheim International GmbH, priority 2022, published 2024).
